Assay results from the SangsterLogP compilation.

Test: method code SF-FL/RC, from DOI: 10.1007/bf00499868, PMID: 43479
Details: not given

Row | Compound | logP
1 | COc1cc(C(O)CN)ccc1O (stereo unspecified) | -1.05
2 | CNC[C@H](O)c1ccc(O)c(O)c1 | -1.37
3 | CNCC(O)c1ccc(O)cc1 (stereo unspecified) | -0.45
4 | COc1cc(CCN)ccc1O | -0.08
5 | NCC(O)c1ccc(O)cc1 (stereo unspecified) | -0.75
6 | CNCC(O)c1ccc(O)c(OC)c1 (stereo unspecified) | -0.64
7 | CC(N)C(O)c1ccc(O)c(O)c1 (stereo unspecified) | -1.43
8 | C[C@H](N)[C@H](O)c1cccc(O)c1 | -0.27

Same assay, conditions: pH 7.4

Row | Compound | logD
9 | COc1cc(C(O)CO)ccc1O (stereo unspecified) | -0.58
10 | COc1cc(CCO)ccc1O | 0.47
11 | OCC(O)c1ccc(O)c(O)c1 (stereo unspecified) | -1.01
